Reference: patent US20200222474A1, “COMPOSITIONS AND METHODS FOR INCREASING PHYTOCHEMICAL BIOAVAILABLITY AND BIOACTIVITY” (North Carolina State University, priority 2017, published 2020)

Test system: L. acidophilus NCFM
Assay: RNA-seq transcriptional analysis of L. acidophilus NCFM growing on plant glycosides
Type: cell-based, Lactobacillus acidophilus
[1] = LBA0329 Putative cell division protein, COG D
[2] = LBA0466 Hypothetical protein, COG C
[3] = LBA0500 MSM operon repressor, COG K
[4] = LBA0545 Hypothetical protein, COG L
[5] = LBA0547 Putative site-specific recombinase, COG L
[6] = LBA0573 Putative transcriptional regulator, COG K
[7] = LBA0607 Putative transcriptional regulator, COG K
[8] = LBA0672 Putative phosphate starvation inducible protein stress related, COG J
[9] = LBA0753 Multi-drug-type permease, COG GEPR
[10] = LBA0886 Sugar kinase-putative transcriptional regulator, COG KG
[11] = LBA0887 Hypothetical protein, COG C
[12] = LBA0897 Putative Cro-like protein, COG K
[13] = LBA0910 L-lactate dehydrogenase, COG C
[14] = LBA1021 Putative transcriptional regulator, COG K
[15] = LBA1220 Pyridine mercuric reductase, COG C
[16] = LBA1392 Mucus binding protein precursor Mub, COG J
[17] = LBA1411 Fumarate reductase flavoprotein subunit, COG CS
[18] = LBA1436 Glycerol uptake facilitator protein, COG G
[19] = LBA1457 Galactose-1-epimerase, COG G
[20] = LBA1458 Galactose-1-phosphate uridylyltransferase, COG G
[21] = LBA1462 Beta-galactosidase, COG G
[22] = LBA1463 Lactose permease, COG G
[23] = LBA1465 Transcription repressor of beta-galactosidasegene, COG K
[24] = LBA1467 Beta-galactosidase large subunit (lactase), COG G
[25] = LBA1468 Beta-galactosidase small subunit, COG G

N#C[C@H](O[C@@H]1O[C@H](CO[C@@H]2O[C@H](CO)[C@@H](O)[C@H](O)[C@H]2O)[C@@H](O)[C@H](O)[C@H]1O)c1ccccc1 [Amygdalin]
Log2 differential normalized TPM ratio compared to glucose (LBA0016 Fructokinase, COG KG): 2.4
Log2 differential normalized TPM ratio compared to lactose (LBA0016 Fructokinase, COG KG): 1.2
Transcripts per million (rpm) (LBA0016 Fructokinase, COG KG): 387.4 rpm
Log2 differential normalized TPM ratio compared to glucose [1]: −0.1
Log2 differential normalized TPM ratio compared to lactose [1]: −0.5
Transcripts per million (rpm) [1]: 12.3 rpm
Log2 differential normalized TPM ratio compared to glucose [2]: 5.2
Log2 differential normalized TPM ratio compared to lactose [2]: 3.7
Transcripts per million (rpm) [2]: 2769.5 rpm
Log2 differential normalized TPM ratio compared to glucose [3]: 2
Log2 differential normalized TPM ratio compared to lactose [3]: 0.4
Transcripts per million (rpm) [3]: 169.5 rpm
Log2 differential normalized TPM ratio compared to glucose [4]: 2
Log2 differential normalized TPM ratio compared to lactose [4]: 0
Transcripts per million (rpm) [4]: 244.7 rpm
Log2 differential normalized TPM ratio compared to glucose [5]: 1.5
Log2 differential normalized TPM ratio compared to lactose [5]: −0.3
Transcripts per million (rpm) [5]: 24.9 rpm
Log2 differential normalized TPM ratio compared to glucose [6]: −1.5
Log2 differential normalized TPM ratio compared to lactose [6]: −1.6
Transcripts per million (rpm) [6]: 26.5 rpm
Log2 differential normalized TPM ratio compared to glucose [7]: 2.7
Log2 differential normalized TPM ratio compared to lactose [7]: 2.2
Transcripts per million (rpm) [7]: 252.9 rpm
Log2 differential normalized TPM ratio compared to glucose [8]: 2.7
Log2 differential normalized TPM ratio compared to lactose [8]: 1.9
Transcripts per million (rpm) [8]: 8689.6 rpm
Log2 differential normalized TPM ratio compared to glucose [9]: −0.6
Log2 differential normalized TPM ratio compared to lactose [9]: 0.1
Transcripts per million (rpm) [9]: 26.1 rpm
Log2 differential normalized TPM ratio compared to glucose [10]: 2.2
Log2 differential normalized TPM ratio compared to lactose [10]: 2
Transcripts per million (rpm) [10]: 25.1 rpm
Log2 differential normalized TPM ratio compared to glucose [11]: 2.4
Log2 differential normalized TPM ratio compared to lactose [11]: 1.2
Transcripts per million (rpm) [11]: 247 rpm
Log2 differential normalized TPM ratio compared to glucose [12]: −2.3
Log2 differential normalized TPM ratio compared to lactose [12]: 0.2
Transcripts per million (rpm) [12]: 0.4 rpm
Log2 differential normalized TPM ratio compared to glucose [13]: 3.9
Log2 differential normalized TPM ratio compared to lactose [13]: 2.9
Transcripts per million (rpm) [13]: 1594.3 rpm
Log2 differential normalized TPM ratio compared to glucose [14]: −1.2
Log2 differential normalized TPM ratio compared to lactose [14]: −1.5
Transcripts per million (rpm) [14]: 52.4 rpm
Log2 differential normalized TPM ratio compared to glucose [15]: 1.2
Log2 differential normalized TPM ratio compared to lactose [15]: 0.2
Transcripts per million (rpm) [15]: 377.5 rpm
Log2 differential normalized TPM ratio compared to glucose [16]: 0.8
Log2 differential normalized TPM ratio compared to lactose [16]: 1.1
Transcripts per million (rpm) [16]: 148.6 rpm
Log2 differential normalized TPM ratio compared to glucose [17]: 4
Log2 differential normalized TPM ratio compared to lactose [17]: 2.9
Transcripts per million (rpm) [17]: 28.7 rpm
Log2 differential normalized TPM ratio compared to glucose [18]: 7.2
Log2 differential normalized TPM ratio compared to lactose [18]: 3.5
Transcripts per million (rpm) [18]: 328.8 rpm
Log2 differential normalized TPM ratio compared to glucose [19]: 2.6
Log2 differential normalized TPM ratio compared to lactose [19]: −3
Transcripts per million (rpm) [19]: 74.9 rpm
Log2 differential normalized TPM ratio compared to glucose [20]: 2.8
Log2 differential normalized TPM ratio compared to lactose [20]: −2.9
Transcripts per million (rpm) [20]: 74 rpm
Log2 differential normalized TPM ratio compared to glucose (LBA1459 Galactokinase, COG G): 1.8
Log2 differential normalized TPM ratio compared to lactose (LBA1459 Galactokinase, COG G): −2.8
Transcripts per million (rpm) (LBA1459 Galactokinase, COG G): 70.3 rpm
Log2 differential normalized TPM ratio compared to glucose [21]: −0.5
Log2 differential normalized TPM ratio compared to lactose [21]: −6.5
Transcripts per million (rpm) [21]: 10.2 rpm
Log2 differential normalized TPM ratio compared to glucose [22]: 0.2
Log2 differential normalized TPM ratio compared to lactose [22]: −4.5
Transcripts per million (rpm) [22]: 50.7 rpm
Log2 differential normalized TPM ratio compared to glucose (LBA1464 Transposase, COG L): −0.1
Log2 differential normalized TPM ratio compared to lactose (LBA1464 Transposase, COG L): −2.5
Transcripts per million (rpm) (LBA1464 Transposase, COG L): 133.1 rpm
Log2 differential normalized TPM ratio compared to glucose [23]: −0.1
Log2 differential normalized TPM ratio compared to lactose [23]: −3.2
Transcripts per million (rpm) [23]: 43.7 rpm
Log2 differential normalized TPM ratio compared to glucose [24]: 3.3
Log2 differential normalized TPM ratio compared to lactose [24]: −5.5
Transcripts per million (rpm) [24]: 42.2 rpm
Log2 differential normalized TPM ratio compared to glucose [25]: 1.8
Log2 differential normalized TPM ratio compared to lactose [25]: −4.6
